Assay results as given in the supplement of paper PMC6045584.
± gives the standard deviation of the averaged measurements.

Legend:
MK2206 = compound: NC1(c2ccc(-c3nc4ccn5c(=O)[nH]nc5c4cc3-c3ccccc3)cc2)CCC1 [MK2206]; test: surviving fraction relative to DMSO-only wells; higher = less growth inhibition; details: exposure time: 5 days
Method in brief: (§1)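 After seeding at 250–500 cells per well in 384-well plates and a 24-hour wait, log-phase tumour cell lines were exposed without interruption for five days to inhibitors at 0.5, 1, 5, 10, 50, 100, 500 and 1000 nM. CellTiter-Glo luminescence was recorded after 10 minutes at room temperature. Viability is reported as surviving fraction, the luminescence normalised to the median of DMSO-only wells.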

SUNITINIB = compound: CCN(CC)CCNC(=O)c1c(C)[nH]c(/C=C2\C(=O)Nc3ccc(F)cc32)c1C [SUNITINIB]; test: as above; details: exposure time: 5 days
Method in brief: as §1

| Test System | surviving fraction (MK2206; 0.5 nM) | surviving fraction (MK2206; 1 nM) | surviving fraction (MK2206; 5 nM) | surviving fraction (MK2206; 10 nM) | surviving fraction (MK2206; 50 nM) | surviving fraction (MK2206; 100 nM) | surviving fraction (MK2206; 500 nM) | surviving fraction (MK2206; 1000 nM) | surviving fraction (SUNITINIB; 0.5 nM) | surviving fraction (SUNITINIB; 1 nM) | surviving fraction (SUNITINIB; 5 nM) | surviving fraction (SUNITINIB; 10 nM) | surviving fraction (SUNITINIB; 50 nM) | surviving fraction (SUNITINIB; 100 nM) | surviving fraction (SUNITINIB; 500 nM) | surviving fraction (SUNITINIB; 1000 nM) |
| --- | --- | --- | --- | --- | --- | --- | --- | --- | --- | --- | --- | --- | --- | --- | --- | --- |
| HCC1806 BREAST | 1.02 ± 0.074 | 1.1 ± 0.021 | 1.15 ± 0.19 | 1.14 ± 0.05 | 1.05 ± 0.072 | 1.02 ± 0.099 | 0.828 ± 0.013 | 0.682 ± 0.015 | 0.677 ± 0.078 | 0.59 ± 0.41 | 0.667 ± 0.45 | 0.566 ± 0.43 | 1 ± 0.091 | 0.978 ± 0.11 | 0.677 ± 0.039 | 0.397 ± 0.044 |
| HCC1954 BREAST | 1.06 ± 0.16 | 0.988 ± 0.088 | 1.14 ± 0.14 | 1.18 ± 0.13 | 0.896 ± 0.035 | 0.9938 ± 0.0039 | 0.482 ± 0.082 | 0.304 ± 0.0067 | 0.363 ± 0.098 | 0.365 ± 0.15 | 0.38 ± 0.16 | 0.434 ± 0.2 | 0.5 ± 0.045 | 0.555 ± 0.052 | 0.616 ± 0.092 | 0.65 ± 0.0088 |
| HCT15 LARGE INTESTINE | 1.04 ± 0.042 | 1.07 ± 0.048 | 1.08 ± 0.052 | 1.07 ± 0.064 | 1.02 ± 0.063 | 1.07 ± 0.025 | 0.942 ± 0.073 | 0.928 ± 0.026 | 0.882 ± 0.015 | 0.73 ± 0.028 | 0.816 ± 0.034 | 0.449 ± 0.021 | 0.952 ± 0.049 |  | 0.855 ± 0.08 | 0.119 ± 0.015 |
| HELA CERVIX | 1.03 ± 0.037 | 1.15 ± 0.043 | 1.12 ± 0.073 | 1.09 ± 0.12 | 1.02 ± 0.057 | 1.09 ± 0.035 | 1.08 ± 0.031 | 1.19 ± 0.051 | 0.906 ± 0.047 | 0.892 ± 0.046 |  | 0.853 ± 0.069 | 0.995 ± 0.044 | 0.948 ± 0.052 | 1.03 ± 0.035 | 0.745 ± 0.05 |
| HMLE3 BREAST | 1.06 ± 0.11 | 1.13 ± 0.047 | 1.08 ± 0.01 | 1.09 ± 0.044 | 0.895 ± 0.14 | 0.843 ± 0.098 | 0.717 ± 0.052 | 0.617 ± 0.018 | 0.887 ± 0.037 | 0.715 ± 0.058 | 0.816 ± 0.019 | 0.241 ± 0.053 | 0.867 ± 0.064 | 0.832 ± 0.061 | 0.498 ± 0.018 | 0.108 ± 0.0078 |
| HMT3552 BREAST | 1.05 ± 0.029 | 1.05 ± 0.02 | 1.1 ± 0.03 | 1.02 ± 0.033 | 1.03 ± 0.041 | 0.909 ± 0.076 | 0.692 ± 0.02 | 0.62 ± 0.014 |  | 0.96 |  |  |  | 1.21 | 0.423 | 0.203 |
| HOS BONE | 1.02 ± 0.013 | 1.03 ± 0.026 | 1.03 ± 0.0087 | 1.05 ± 0.038 | 0.978 ± 0.021 | 0.948 ± 0.021 | 0.822 ± 0.038 | 0.79 ± 0.012 | 0.921 ± 0.015 | 0.937 ± 0.025 | 0.8943 ± 0.0061 | 0.884 ± 0.021 | 0.954 ± 0.01 | 0.9297 ± 0.009 | 0.786 ± 0.017 | 0.471 ± 0.0095 |
| HOSMNG BONE | 0.865 ± 0.1 | 0.936 ± 0.1 | 0.907 ± 0.082 | 0.846 ± 0.1 | 0.773 ± 0.076 | 0.802 ± 0.15 | 0.752 ± 0.064 | 0.678 ± 0.027 | 0.939 ± 0.1 |  | 0.969 ± 0.13 |  | 1.06 ± 0.12 | 0.999 ± 0.18 | 0.803 ± 0.072 | 0.44 ± 0.037 |
| HS578T BREAST | 1.06 ± 0.17 | 1 ± 0.084 | 1.02 ± 0.087 | 1.04 ± 0.15 | 1.03 ± 0.19 | 0.829 ± 0.08 | 0.652 ± 0.064 | 0.618 ± 0.028 | 0.838 ± 0.15 | 0.824 ± 0.057 |  | 0.881 ± 0.049 |  |  | 0.871 ± 0.073 | 0.426 ± 0.054 |
| HSSYII SYNOVIAL | 0.937 ± 0.019 | 0.9935 ± 0.0096 | 0.93 ± 0.042 | 0.984 ± 0.043 | 0.903 ± 0.059 | 0.921 ± 0.037 | 0.773 ± 0.024 | 0.738 ± 0.032 | 0.771 ± 0.076 | 0.694 ± 0.029 | 0.755 ± 0.012 | 0.216 ± 0.01 |  | 0.765 ± 0.045 | 0.418 ± 0.02 | 0.114 ± 0.0013 |
| HT1080 SOFT TISSUE | 1.04 ± 0.028 | 1.02 ± 0.018 | 1.04 ± 0.018 | 1.06 ± 0.043 | 1.05 ± 0.026 | 1.05 ± 0.012 | 0.997 ± 0.049 | 0.951 ± 0.044 | 0.9787 ± 0.0091 |  | 0.997 ± 0.021 | 0.97 ± 0.07 |  | 1.1 ± 0.031 | 0.766 ± 0.032 | 0.559 ± 0.032 |
| HU09 BONE | 0.85 ± 0.065 | 0.971 ± 0.0053 | 0.991 ± 0.18 | 1.06 ± 0.094 | 0.849 ± 0.039 | 0.63 ± 0.05 | 0.363 ± 0.034 | 0.272 ± 0.016 | 0.865 ± 0.14 |  | 0.768 ± 0.076 | 0.637 ± 0.048 | 0.498 ± 0.051 | 0.485 ± 0.073 | 0.288 ± 0.035 | 0.161 ± 0.011 |
| JIMT1 BREAST | 0.965 ± 0.025 | 0.996 ± 0.017 | 0.999 ± 0.049 | 1.02 ± 0.01 | 0.929 ± 0.012 | 0.917 ± 0.027 | 0.68 ± 0.023 | 0.633 ± 0.034 | 0.826 ± 0.025 | 0.81 ± 0.07 | 0.841 ± 0.041 | 0.848 ± 0.069 | 1.05 ± 0.056 | 1.04 ± 0.075 | 0.776 ± 0.098 | 0.54 ± 0.063 |
| JURKAT HAEMATOPOIETIC AND LYMPHOID TISSUE | 1 ± 0.013 | 1.03 ± 0.03 | 0.92 ± 0.016 | 0.987 ± 0.022 | 0.871 ± 0.0053 | 0.787 ± 0.025 | 0.471 ± 0.01 | 0.274 ± 0.0046 | 1.03 ± 0.023 | 1 ± 0.015 | 1.009 ± 0.0064 | 1.01 ± 0.025 | 1.01 ± 0.026 | 1.04 ± 0.012 | 0.677 ± 0.012 | 0.0883 ± 0.0087 |
| KPD BONE | 1 ± 0.043 | 0.979 ± 0.031 | 0.944 ± 0.075 | 0.931 ± 0.047 | 0.634 ± 0.013 | 0.467 ± 0.024 | 0.252 ± 0.0083 | 0.195 ± 0.0091 | 0.898 ± 0.04 | 0.875 ± 0.031 | 0.928 ± 0.042 |  | 0.9567 ± 0.007 | 0.972 ± 0.022 | 0.73 ± 0.031 | 0.441 ± 0.046 |
| LM7 BONE | 0.991 ± 0.019 | 0.998 ± 0.043 | 1.04 ± 0.046 | 1.03 ± 0.055 | 0.84 ± 0.069 | 0.818 ± 0.056 | 0.628 ± 0.041 | 0.579 ± 0.016 | 0.786 ± 0.068 | 0.767 ± 0.028 | 0.81 ± 0.087 | 0.731 ± 0.05 | 0.93 ± 0.039 | 0.794 ± 0.016 | 0.342 ± 0.009 | 0.177 ± 0.018 |
| MCF7 BREAST | 0.947 ± 0.046 | 0.942 ± 0.052 | 0.933 ± 0.044 | 0.916 ± 0.034 | 0.882 ± 0.065 | 0.841 ± 0.078 | 0.659 ± 0.033 | 0.62 ± 0.042 | 0.786 ± 0.02 | 0.822 ± 0.023 | 0.8113 ± 0.0079 | 0.706 ± 0.0095 |  | 0.842 ± 0.015 | 0.751 ± 0.012 | 0.607 ± 0.015 |
| MDAMB134 BREAST | 1 ± 0.079 | 0.89 ± 0.29 | 0.921 ± 0.0014 | 0.891 ± 0.14 | 0.703 ± 0.016 | 0.783 ± 0.072 | 0.629 ± 0.13 | 0.673 ± 0.18 | 0.675 ± 0.021 | 0.777 ± 0.087 | 0.715 ± 0.14 | 0.675 ± 0.022 | 0.887 ± 0.067 |  | 1.05 ± 0.22 |  |
| MDAMB157 BREAST | 0.952 ± 0.052 | 0.999 ± 0.02 | 1.06 ± 0.026 | 0.963 ± 0.081 | 0.96 ± 0.053 | 0.949 ± 0.019 | 0.947 ± 0.048 | 0.904 ± 0.1 | 0.794 ± 0.024 | 0.802 ± 0.08 | 0.87 ± 0.07 | 0.869 ± 0.12 | 0.83 ± 0.032 | 0.74 ± 0.072 | 0.613 ± 0.064 | 0.404 ± 0.062 |
| MDAMB231 BREAST | 0.954 ± 0.019 | 1.006 ± 0.0089 | 0.976 ± 0.021 | 0.972 ± 0.024 | 0.903 ± 0.027 | 0.934 ± 0.033 | 0.869 ± 0.027 | 0.856 ± 0.011 | 0.955 ± 0.016 | 0.9679 ± 0.0028 | 0.979 ± 0.012 | 0.976 ± 0.033 | 1.09 ± 0.017 | 1.12 ± 0.017 | 1.04 ± 0.0064 | 0.848 ± 0.011 |
| MDAMB361 BREAST | 0.985 ± 0.072 | 0.922 ± 0.076 | 0.826 ± 0.1 | 0.841 ± 0.031 | 0.768 ± 0.11 | 0.608 ± 0.019 | 0.353 ± 0.024 | 0.34 ± 0.026 | 0.683 ± 0.049 | 0.717 ± 0.023 | 0.696 ± 0.058 | 0.651 ± 0.025 | 0.82 ± 0.069 |  | 0.8 ± 0.011 | 0.527 ± 0.054 |
| MDAMB436 BREAST | 1.02 ± 0.14 | 0.932 ± 0.087 | 0.954 ± 0.023 | 0.957 ± 0.068 | 0.928 ± 0.023 | 0.924 ± 0.11 | 0.828 ± 0.14 | 0.734 ± 0.088 | 0.761 ± 0.07 | 0.78 ± 0.046 | 0.79 ± 0.011 | 0.79 ± 0.099 | 0.85 ± 0.087 | 0.913 ± 0.071 | 0.718 ± 0.061 | 0.596 ± 0.023 |
